PubChem BioAssay (NCI)
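Assay format: 96-well plates, 48-hour exposure. TGI denotes the concentration required for complete inhibition of growth.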

Legend:
Experiment in all cases: NCI tumour cell line growth inhibition, 48 h
BT-549 breast = test system: BT-549 breast
HS 578T breast = test system: HS 578T breast
MDA-MB-231 breast = test system: MDA-MB-231 breast
MDA-MB-435 = test system: MDA-MB-435
MDA-N = test system: MDA-N
PC-3 prostate = test system: PC-3 prostate
T-47D breast = test system: T-47D breast
DMS 114 small cell lung = test system: DMS 114 small cell lung
HOP-18 NSCLC = test system: HOP-18 NSCLC
LXFL 529 NSCLC = test system: LXFL 529 NSCLC
M19-MEL melanoma = test system: M19-MEL melanoma
P388 leukemia = test system: P388 leukemia
P388/ADR leukemia = test system: P388/ADR leukemia
SN12K1 renal = test system: SN12K1 renal

SMILES	TGI (BT-549 breast)	TGI (HS 578T breast)	TGI (MDA-MB-231 breast)	TGI (MDA-MB-435)	TGI (MDA-N)	TGI (PC-3 prostate)	TGI (T-47D breast)	TGI (DMS 114 small cell lung)	TGI (HOP-18 NSCLC)	TGI (LXFL 529 NSCLC)	TGI (M19-MEL melanoma)	TGI (P388 leukemia)	TGI (P388/ADR leukemia)	TGI (SN12K1 renal)
C[Si](C)(OCCS(=O)(=O)O)C1(Cc2cccc3ccccc23)S(=O)(=O)OCCOS1(=O)=O	33.5 µM	95 µM	43.3 µM	43 µM	41.9 µM	45.4 µM	34.6 µM							
COc1ccc(-n2cnnc2-c2nsc3ccccc23)cc1								> 100 µM	> 100 µM	> 100 µM	> 100 µM			
CC(C)OP(=O)(OC(C)C)/C(I)=N/Nc1ccc([N+](=O)[O-])cc1								> 100 µM		> 100 µM	> 100 µM			
CC(NC(=O)C(C)NC(=O)C(N)CCP(C)(=O)O)C(=O)O (stereo unspecified)									> 100 µM		> 100 µM	> 31.6 µM	> 100 µM	> 100 µM
Nc1nc(SCc2ccc([N+](=O)[O-])cc2)nc2c1ncn2C1OC(COP(=O)(O)O)C(O)C1O (stereo unspecified)								> 100 µM		> 100 µM				
Cc1ccc(N=N/C(=N\NC(=O)c2ccc(C)cc2)c2ccc(N(CCC#N)CCC#N)cc2C)cc1		70 µM	> 100 µM	65.8 µM	> 100 µM	> 100 µM	> 100 µM							
CCOP(=O)(OCC)/C(C#N)=C/c1cn(C)cn1	> 100 µM		> 100 µM	> 100 µM	> 100 µM	> 100 µM								
CC1=Nc2nc(Cl)cn2C(=O)C1(Cl)Cl		> 10 µM	> 10 µM	> 10 µM	> 10 µM	> 10 µM	> 10 µM							
N[C@H](C(=O)O)[C@H]1ON=C(Cl)[C@@H]1O		97.5 µM						> 422 µM	> 550 µM		> 550 µM	17.5 µM	46.4 µM	> 324 µM
Cc1ccc(N2Cc3c(ccc4ccccc34)OP2(=O)Oc2ccc(Cl)c(C)c2)cc1 (stereo unspecified)								> 100 µM	> 100 µM		> 100 µM	> 100 µM	> 100 µM	> 100 µM
